# Measured values: patent US11427615B2, “Peptide compound and application thereof, and composition containing peptide compound” (XDCEXPLORER (SHANGHAI) CO., LTD., priority 2017, dated 2022)
# “And” between values parts separate entries of the source, which are not always exact repeats. Identical values can stand only once. Starred links: 1 amine or outer side, 2 acyl side, 3 side chain; linkers in the order of their positions; H or OH if unused. Non-standard residues stand in square brackets, D forms with d. Residues, ends and D or L forms follow the SMILES beside them. *: point of attachment. cPrCO(1-aminomethyl) = O=C(C1(CN[*:1])CC1)[*:2]; Phe(4-tBu) = CC(C)(C)c1ccc(C[C@H](N)C(=O)O)cc1; dPhe(2,4-Cl2) = N[C@H](Cc1ccc(Cl)cc1Cl)C(=O)O; X7 = c1ccc2c(C[C@H](N*)c3nn[nH]n3)c[nH]c2c1; PEG8 = NCCOCCOCCOCCOCCOCCOCCOCCOCCC(=O)O; Phe(4-F) = N[C@@H](Cc1ccc(F)cc1)C(=O)O; Pro(4,4-F2) = O=C(O)[C@@H]1CC(F)(F)CN1; dPhe(4-F) = N[C@H](Cc1ccc(F)cc1)C(=O)O; dPhe(4-I) = N[C@H](Cc1ccc(I)cc1)C(=O)O; Arg(Me) = CNC(=N)NCCC[C@H](N)C(=O)O; Palmitoyl = CCCCCCCCCCCCCCCC(=O)*; Hyp = O=C(O)[C@@H]1C[C@@H](O)CN1; azaPro = O=C(N1CCCN1[*:1])[*:2]; 2Thi = N[C@@H](Cc1cccs1)C(=O)O; Pip = O=C(O)[C@@H]1CCCCN1; Ac6c = NC1(C(=O)O)CCCCC1; Aze = O=C(O)[C@@H]1CCN1; azaGly = NNC(=O)O
# Target: T1, human kiss1 receptor (GPR54) (Homo sapiens, UniProt Q969F8)
# T1 construct: host or cells: NFAT-bla CHO-K1 cells (Chinese hamster ovary), purchased recombinant cell line
# T1 sequence (Q969F8 whole entry): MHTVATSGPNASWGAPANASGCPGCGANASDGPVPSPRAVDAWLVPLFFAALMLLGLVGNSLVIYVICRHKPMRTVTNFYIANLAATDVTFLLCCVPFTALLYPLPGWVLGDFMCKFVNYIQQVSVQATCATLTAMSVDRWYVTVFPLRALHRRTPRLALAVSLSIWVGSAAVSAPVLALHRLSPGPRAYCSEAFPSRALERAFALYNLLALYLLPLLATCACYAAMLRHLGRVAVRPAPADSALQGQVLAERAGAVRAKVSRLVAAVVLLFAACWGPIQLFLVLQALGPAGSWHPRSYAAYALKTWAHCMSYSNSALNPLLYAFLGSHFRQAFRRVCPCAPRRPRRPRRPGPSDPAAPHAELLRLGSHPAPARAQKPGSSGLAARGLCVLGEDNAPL
# Experiment: Kiss1 receptor (GPR54) binding activity of agonists, FRET detection in NFAT-bla CHO-K1 cells
# Assay type: cell-based
# Conditions: GPR54; measured according to the method of effect Embodiment 1; preliminary data; read-out: Preliminary measurement data (GPR54) EC50
row,EC50,Compound
1,0.0478 nM,"CCCCCCCCCCCCCCCC(=O)NCCOCCOCCOCCOCCOCCOCCOCCOCCC(=O)NCC(=O)NCC(=O)N[C@@H](Cc1ccc(O)cc1)C(=O)N[C@@H](CC(N)=O)C(=O)N[C@@H](Cc1c[nH]c2ccccc12)C(=O)N[C@@H](CC(N)=O)C(=O)N[C@@H](CO)C(=O)N[C@@H](Cc1ccccc1)C(=O)NCC(=O)N[C@@H](CC(C)C)C(=O)N[C@@H](CCCNC(=N)N)C(=O)N[C@@H](Cc1ccccc1)C(N)=O [YA-158, Palm-PEG8-Gly-Gly-Tyr-Asn-Trp-Asn-Ser-Phe-Gly-Leu-Arg-Phe-NH2]"
2,0.65 nM,"CNC(=N)NCCC[C@H](NC(=O)[C@H](CC(C)C)NC(=O)C1(NC(=O)[C@H](Cc2ccccc2)NC(=O)[C@@H](NC(=O)[C@H](CC(N)=O)NC(=O)[C@@H]2CCCCN2C(=O)[C@@H](Cc2ccc(O)cc2)NC(C)=O)[C@@H](C)O)CCCCC1)C(=O)N[C@@H](Cc1c[nH]c2ccccc12)C(N)=O [YA-228, Ac-D-Tyr-(S-Pip)-Asn-Thr-Phe-A6c-Leu-Arg(Me)-Trp-NH2] (Ac-[dY][Pip]NTF[Ac6c]L[Arg(Me)]W-NH2)"
3,0.201 nM,"CNC(=N)NCCC[C@H](NC(=O)[C@H](CC(C)C)NC(=O)NNC(=O)[C@H](Cc1ccccc1)NC(=O)[C@H](Cc1cccs1)NC(=O)[C@H](CC(N)=O)NC(=O)[C@@H]1C[C@@H](O)CN1C(=O)[C@@H](Cc1ccc(O)cc1)NC(C)=O)C(=O)N[C@@H](Cc1c[nH]c2ccccc12)C(N)=O [YA-144, Ac-(D-Tyr)-Hyp-Asn-Thi-Phe-azaGly-Leu-Arg(Me)-Trp-NH2] (Ac-[dY][Hyp]N[2Thi]F[azaGly]L[Arg(Me)]W-NH2)"
4,0.01 nM,"CNC(=N)NCCC[C@H](NC(=O)C(CC(C)C)C(=O)NCNC(=O)[C@H](Cc1ccccc1)NC(=O)[C@@H](NC(=O)[C@H](CC(N)=O)NC(=O)[C@@H]1C[C@@H](O)CN1C(=O)[C@@H](Cc1ccc(O)cc1)NC(C)=O)[C@@H](C)O)C(=O)N[C@@H](Cc1c[nH]c2ccccc12)C(N)=O (single isomer, unassigned) [YA-303, Ac-(D-Tyr)-Hyp-Asn-Thr-Phe-ψ(NHCO)Gly-Leu-Arg(Me)-Trp-NH2]"
5,9.6 nM,"CNC(=N)NCCC[C@H](NC(=O)[C@H](CC(C)C)NC(=O)C1(NC(=O)[C@H](Cc2ccccc2)NC(=O)[C@@H](NC(=O)[C@H](CC(N)=O)NC(=O)[C@@H]2CCCCN2C(=O)[C@H](Cc2ccc(F)cc2)NC(C)=O)[C@@H](C)O)CCCCC1)C(=O)N[C@@H](Cc1c[nH]c2ccccc12)C(N)=O [YA-202, Ac-Phe(4-F)-(S-Pip)-Asn-Thr-Phe-A6c-Leu-Arg(Me)-Trp-NH2] (Ac-[Phe(4-F)][Pip]NTF[Ac6c]L[Arg(Me)]W-NH2)"
6,0.032 nM,"CNC(=N)NCCC[C@H](NC(=O)[C@H](CC(C)C)NC(=O)NNC(=O)[C@H](Cc1ccccc1)NC(=O)[C@@H](NC(=O)[C@H](CC(N)=O)NC(=O)[C@@H]1C[C@@H](O)CN1C(=O)[C@@H](Cc1ccc(I)cc1)NC(C)=O)[C@@H](C)O)C(=O)N[C@@H](Cc1c[nH]c2ccccc12)C(N)=O [YA-358, Ac-(D-Phe(4-I))-Hyp-Asn-Thr-Phe-azaGly-Leu-Arg(Me)-Trp-NH2] (Ac-[dPhe(4-I)][Hyp]NTF[azaGly]L[Arg(Me)]W-NH2)"
7,48 nM,"CNC(=N)NCCC[C@H](NC(=O)[C@H](CC(C)C)NC(=O)N1CCCN1C(=O)[C@H](Cc1ccccc1)NC(=O)[C@@H](NC(=O)[C@H](CC(N)=O)NC(=O)[C@@H]1C[C@@H](O)CN1C(=O)[C@@H](Cc1ccc(Cl)cc1Cl)NC(C)=O)[C@@H](C)O)C(=O)N[C@@H](Cc1c[nH]c2ccccc12)C(N)=O [YA-184, Ac-[D-Phe(2,4-DiCl)]-Hyp-Asn-Thr-Phe-azaPro-Leu-Arg(Me)-Trp-NH2] (Ac-[dPhe(2,4-Cl2)][Hyp]NTF[azaPro]L[Arg(Me)]W-NH2)"
8,1.36 nM,"CNC(=N)NCCC[C@H](NC(=O)[C@H](CC(C)C)NC(=O)[C@@H]1CCN1C(=O)[C@H](Cc1ccccc1)NC(=O)[C@@H](NC(=O)[C@H](CC(N)=O)NC(=O)[C@@H]1CC(F)(F)CN1C(=O)[C@@H](Cc1ccc(O)cc1)NC(C)=O)[C@@H](C)O)C(=O)N[C@@H](Cc1c[nH]c2ccccc12)C(N)=O [YA-193, Ac-(D-Tyr)-Pro(diF)-Asn-Thr-Phe-Aze-Leu-Arg(Me)-Trp-NH2] (Ac-[dY][Pro(4,4-F2)]NTF[Aze]L[Arg(Me)]W-NH2)"
9,1.32 nM,"CNC(=N)NCCC[C@H](NC(=O)[C@H](CC(C)C)NC(=O)NNC(=O)[C@H](Cc1ccccc1)NC(=O)[C@@H](NC(=O)[C@H](CC(N)=O)NC(=O)[C@@H]1C[C@@H](O)CN1C(=O)[C@H](Cc1ccc(OC)cc1)NC(C)=O)[C@@H](C)O)C(=O)N[C@@H](Cc1c[nH]c2ccccc12)C(N)=O [YA-73, Ac-Tyr(Me)-Hyp-Asn-Thr-Phe-azaGly-Leu-Arg(Me)-Trp-NH2] (Ac-Y(Me)[Hyp]NTF[azaGly]L[Arg(Me)]W-NH2)"
10,0.048 nM,"CCCCCCCCCCCCCCCC(=O)NCCOCCOCCOCCOCCOCCOCCOCCOCCC(=O)NCC(=O)NCC(=O)N[C@H](Cc1ccc(I)cc1)C(=O)N1C[C@H](O)C[C@H]1C(=O)N[C@@H](CC(N)=O)C(=O)N[C@H](C(=O)N[C@@H](Cc1ccccc1)C(=O)NNC(=O)N[C@@H](CC(C)C)C(=O)N[C@@H](CCCNC(=N)NC)C(=O)N[C@@H](Cc1c[nH]c2ccccc12)C(N)=O)[C@@H](C)O [YA-366, Palm-PEG8-Gly-Gly-(D-Phe(4-I))-Hyp-Asn-Thr-Phe-AzaGly-Leu-Arg(Me)-Trp-NH2] ({Palmitoyl-PEG8}-GG[dPhe(4-I)][Hyp]NTF[azaGly]L[Arg(Me)]W-NH2)"
11,18.7 nM,"CNC(=N)NCCC[C@H](NC(=O)[C@H](CC(C)C)NC(=O)NNC(=O)[C@H](Cc1ccccc1)NC(=O)[C@@H](NC(=O)[C@H](CC(N)=O)NC(=O)[C@@H]1C[C@@H](O)CN1C(=O)[C@H](Cc1ccc(C(C)(C)C)cc1)NC(C)=O)[C@@H](C)O)C(=O)N[C@@H](Cc1c[nH]c2ccccc12)C(N)=O [YA-75, Ac-Phe(4-tBu)-Hyp-Asn-Thr-Phe-azaGly-Leu-Arg(Me)-Trp-NH2] (Ac-[Phe(4-tBu)][Hyp]NTF[azaGly]L[Arg(Me)]W-NH2)"
12,0.02 nM,"CCCCCCCCCCCCCCCC(=O)NCCOCCOCCOCCOCCOCCOCCOCCOCCC(=O)NCC(=O)NCC(=O)N[C@H](Cc1ccc(O)cc1)C(=O)NC1(C(=O)N[C@@H](CC(N)=O)C(=O)N[C@H](C(=O)N[C@@H](Cc2ccccc2)C(=O)NNC(=O)N[C@@H](CC(C)C)C(=O)N[C@@H](CCCNC(=N)NC)C(=O)N[C@@H](Cc2c[nH]c3ccccc23)C(N)=O)[C@@H](C)O)CCCCC1 [YA-268, Palm-PEG8-G-G-DY-A6c-Asn-Thr-Phe-azaG-Leu-Arg(Me)-Trp-NH2] ({Palmitoyl-PEG8}-GG[dY][Ac6c]NTF[azaGly]L[Arg(Me)]W-NH2)"
13,382 nM,"CNC(=N)NCCC[C@H](NC(=O)[C@H](CC(C)C)NC(=O)C1(NC(=O)[C@H](Cc2ccccc2)NC(=O)[C@@H](NC(=O)[C@H](CC(N)=O)NC(=O)[C@@H]2C[C@@H](O)CN2C(=O)[C@H](Cc2ccc(F)cc2)NC(C)=O)[C@@H](C)O)CCCCC1)C(=O)N[C@@H](Cc1c[nH]c2ccccc12)C(N)=O [YA-198, Ac-Phe(4-F)-Hyp-Asn-Thr-Phe-A6c-Leu-Arg(Me)-Trp-NH2] (Ac-[Phe(4-F)][Hyp]NTF[Ac6c]L[Arg(Me)]W-NH2)"
14,0.521 nM,"CNC(=N)NCCC[C@H](NC(=O)[C@H](CC(C)C)NC(=O)[C@@H]1CCN1C(=O)[C@H](Cc1ccccc1)NC(=O)[C@@H](NC(=O)[C@H](CC(N)=O)NC(=O)[C@H](Cc1cccs1)NC(=O)[C@@H](Cc1ccc(O)cc1)NC(C)=O)[C@@H](C)O)C(=O)N[C@@H](Cc1c[nH]c2ccccc12)C(N)=O [YA-191, Ac-D-Tyr-Thi-Asn-Thr-Phe-Aze-Leu-Arg(Me)-Trp-NH2] (Ac-[dY][2Thi]NTF[Aze]L[Arg(Me)]W-NH2)"
15,8 nM,"CNC(=N)NCCC[C@H](NC(=O)[C@H](CC(C)C)NC(=O)[C@@H]1CCCCN1C(=O)[C@H](Cc1ccccc1)NC(=O)[C@@H](NC(=O)[C@H](CC(N)=O)NC(=O)[C@@H]1C[C@@H](O)CN1C(=O)[C@@H](Cc1ccc(O)cc1)NC(C)=O)[C@@H](C)O)C(=O)N[C@@H](Cc1c[nH]c2ccccc12)C(N)=O [YA-226, Ac-(D-Tyr)-Hyp-Asn-Thr-Phe-(S-Pip)-Leu-Arg(Me)-Trp-NH2] (Ac-[dY][Hyp]NTF[Pip]L[Arg(Me)]W-NH2)"

# Same assay, conditions: human kiss1 receptor (GPR54), NFAT-bla CHO-K1 cells, FRET; preliminary data; method of effect Embodiment 1; read-out: Preliminary measurement data (GPR54) EC50
row,EC50,Compound
1,1.17 nM,"CNC(=N)NCCC[C@H](NC(=O)[C@H](CC(C)C)NC(=O)C1(NC(=O)[C@H](Cc2ccccc2)NC(=O)[C@@H](NC(=O)[C@H](CC(N)=O)NC(=O)C2(NC(=O)[C@@H](Cc3ccc(F)cc3)NC(C)=O)CCCCC2)[C@@H](C)O)CCCCC1)C(=O)N[C@@H](Cc1c[nH]c2ccccc12)C(N)=O [YA-244, Ac-[D-Phe(4-F)]-A6c-Asn-Thr-Phe-A6c-Leu-Arg(Me)-Trp-NH2] (Ac-[dPhe(4-F)][Ac6c]NTF[Ac6c]L[Arg(Me)]W-NH2; C-terminus assumed)"
2,2.86 nM,"CNC(=N)NCCC[C@H](NC(=O)[C@H](CC(C)C)NC(=O)NNC(=O)[C@H](Cc1ccccc1)NC(=O)[C@@H](NC(=O)[C@H](CC(N)=O)NC(=O)[C@@H]1C[C@@H](O)CN1C(=O)[C@@H](Cc1ccc(O)cc1)NC(C)=O)[C@@H](C)O)C(=O)N[C@@H](Cc1c[nH]c2ccccc12)C(=O)O [YA-246, Ac-(D-Tyr)-Hyp-Asn-Thr-Phe-azaGly-Leu-Arg(Me)-Trp-OH] (Ac-[dY][Hyp]NTF[azaGly]L[Arg(Me)]W-OH)"
3,42.6 nM,"CNC(=N)NCCC[C@H](NC(=O)[C@H](CC(C)C)NC(=O)C1(CNC(=O)[C@H](Cc2ccccc2)NC(=O)[C@@H](NC(=O)[C@H](CC(N)=O)NC(=O)[C@@H]2C[C@@H](O)CN2C(=O)[C@@H](Cc2ccc(O)cc2)NC(C)=O)[C@@H](C)O)CC1)C(=O)N[C@@H](Cc1c[nH]c2ccccc12)C(N)=O [YA-289, Ac-(D-Tyr)-Hyp-Asn-Thr-Phe-ACPA-Leu-Arg(Me)-Trp-NH2] (Ac-[dY][Hyp]NTF[cPrCO(1-aminomethyl)]L[Arg(Me)]W-NH2)"
4,7.5 nM and 15.4 nM,"CNC(=N)NCCC[C@H](NC(=O)[C@H](CC(C)C)NC(=O)NNC(=O)[C@H](Cc1ccccc1)NC(=O)[C@@H](NC(=O)[C@H](CC(N)=O)NC(=O)[C@@H]1C[C@@H](O)CN1C(=O)[C@@H](Cc1ccc(O)cc1)NC(C)=O)[C@@H](C)O)C(=O)N[C@@H](Cc1c[nH]c2ccccc12)c1nn[nH]n1 [YA-250, Ac-(D-Tyr)-Hyp-Asn-Thr-Phe-azaG-Leu-Arg(Me)-Trp-2H-tetrazol-5-yl] (Ac-[dY][Hyp]NTF[azaGly]L[Arg(Me)]-X7)"
